Results from patent publication US20050265999A1, “Modulation of 5-HT2 receptors as a treatment for cardiovascular diseases” (Myogen, Inc., priority 2003, published 2005).

System: MCIP1 exon 4 promoter luciferase reporter
Assay: High throughput MCIP1-luciferase reporter screen in H9c2 muscle cells
Format: cell-based, rat
Conditions: screen of 20,000 compounds
Excerpt: A high throughput screen for small molecules that enhance MCIP1 expression in cardiac myocytes. The inventors set out to perform a high throughput screen of a combinatorial small molecule library for compounds capable of increasing MCIP1 expression in cultured H9c2 muscle cells. Toward that end, the inventors used a luciferase reporter gene controlled by the region upstream of exon 4 of the human MCIP1 gene (−874 to +30). This genomic region contains 15 NFAT binding sites and confers calcineurin responsiveness to MCIP1. Transcripts initiated from exon 4 encode a MCIP1 protein with a Mr=28 kD.

## Cc1c(-c2ccccc2)nc2sc3c(c2c1N)CCCC3 [Compound 18264, 3-Methyl-2-phenyl-5,6,7,8-tetrahydro-benzo[4,5]thieno[2,3-b]pyridin-4-ylamine]
  stimulation of MCIP1-luciferase expression: approximately two-fold
